# Measurements as given in a melting point compilation (Tetko et al.).
row,Compound,melting point [°C]
1,CC1(C)CC(=O)C2=C(C1)Nc1c(ccc3ccccc13)C2c1ccc(O)cc1 (stereo not drawn),312
2,CC1(C)CCC(=O)CC1,42
3,O=C(NCc1ccccc1)c1cccnc1Cl,120
4,NC(=O)CSSCC(N)=O,162
5,C[Si](C)(C)O[Si](C)(C)O[Si](C)(C)O[Si](C)(C)O[Si](C)(C)C,-80
6,CC(=O)c1cc2c(cc1C)C(C)(C)C(C)CC2(C)C (stereo not drawn),54.5
7,O=C(CCl)Nc1cccc(Cl)c1Cl,104 to 106
8,Cc1nn(C)c2ncc3c(=O)[nH]n(C)c3c12,300
9,CC1CNC(C(C2=NCC(C)N2)C2=NCC(C)N2)=N1 (stereo not drawn),241 to 242
10,CCCC(=O)Nc1ccc(O)cc1,140
11,O=C1OC(c2ccccc2)=NC1=Cc1cccs1,167
12,CCCC1CC(C(=O)NC(C(C)O)C2OC(SC)C(O)C(O)C2O)N(C)C1 (stereo not drawn),295
13,O=C1NN=C(C(F)(F)F)C1=NNc1ccccc1,186
14,FC(F)(F)c1ccc2[nH]ccc2c1,69
15,CCOC(=O)c1c(-c2ccccc2)csc1NC(=O)c1ccc(Cl)cc1,171 to 172
16,Clc1nccc2ccccc12,34
17,O=c1[nH]c2ccccc2n1C1=CCNCC1,195 to 200
18,CCCCCCSc1nc2ccc(NC(=O)COc3ccc(Cl)cc3Cl)cc2s1,105
19,N#CCCc1ccc(O)cc1,56
20,CC(=O)NCCNc1cc(=O)oc2ccccc12,262
21,CCOC(=O)c1c(-c2ccccc2)csc1NC(=O)CN(CC)CC,93 to 94
22,COC(=O)c1c2c(c(C)c3c1CC3=O)C(=O)C2,168
23,CN1C2CC(=O)CC1C(O)C2 (stereo not drawn),120 to 123
24,CC(C)=NN=C(C)C,-12.5

row,Compound,melting point [°C]
1,CCc1cccc(CC)c1NC(=O)CCl,130
2,CC1CC1C (stereo not drawn),-141
3,COc1ccc(-n2cncn2)cc1,97
4,CC12CCCC1C1CCC3CC4(CCC3(C)C1CC2)OCCO4 (stereo not drawn),117
5,CCCC(=O)c1ccc(Cl)cc1,36 to 39
6,CC(=O)c1ccc([N+](=O)[O-])s1,106
7,CCOC(=O)NC(=S)Nc1sc2c(c1C(=O)OCC)CCN(Cc1ccccc1)C2,206
8,O=C(O)c1ccc(C(F)(F)F)cc1C(F)(F)F,109 to 113
9,O=C(CCl)c1ccc(O)c(O)c1,174
10,COc1cc2c(c(O)c1OC)C(C)NCC2 (stereo not drawn),160
11,CCOC(=O)C(C)(C)N1CCN(c2ccc(Cl)cc2)CC1,56
12,O=S(=O)(O)c1cccc2cccc(Cl)c12,145 to 147
13,ClC[Si]12OCCN(CCO1)CCO2,221
14,O=C1C=CC(=O)N1c1ccc(N2C(=O)C=CC2=O)cc1,300
15,CC1=NN(c2ccccc2)C(=O)C1C(c1ccc(O)cc1)C1C(=O)N(c2ccccc2)N=C1C (stereo not drawn),241
16,CC(C)CC(C)Br (stereo not drawn),-94
17,Oc1nsc(SCc2ccccc2)n1,123 to 125
18,Clc1c2ccccc2nc2ccccc12,121
19,O=C1c2ccccc2C(=O)N1c1ccc(Cl)cc1,197
20,ClCCc1ccc(CCCl)cc1,47
21,CCC(=O)OCN1C(=O)NC(c2ccccc2)(c2ccccc2)C1=O,171
22,CC(C)(C)OC(=O)NC(CO)C(=O)O (stereo not drawn),90.5
23,N#CCS(=O)(=O)Cc1ccc(Cl)cc1,179 to 182
24,CCOC(=O)c1sc2sc(C(=O)OCC)c(NC(=O)c3ccccc3)c2c1NC(=O)c1ccccc1,286

row,Compound,melting point [°C]
1,CC(C)(C(=O)N1C(=O)C=CC1(C)C)C(=O)N1C(=O)C=CC1(C)C,128
2,CCCSc1ccccc1,-45
3,CCOC(=O)CC(=O)C=P(c1ccccc1)(c1ccccc1)c1ccccc1,101 to 106
4,Oc1nccc(C(F)(F)F)n1,217 to 218
5,CCCCCCCCCCC(=O)OCC,-15
6,CCC(Br)=CBr,-49.5
7,Cc1cc(C)n(CN(Cn2nc(C)cc2C)c2ccc(N(Cn3nc(C)cc3C)Cn3nc(C)cc3C)cc2)n1,175
8,CSc1ccc(S)cc1,13
9,NC(=O)C12CCN(CC1)CC2,235 to 237
10,CCOC(=O)C=C1SC(N2CCCCC2)C(=O)N1C (stereo not drawn),140
11,O=C1NC(=S)NC(=O)C1=NNc1ccc(Br)cc1,268
12,CCO[C@H]1OC(C(N)=O)=CC[C@H]1Br,141 to 142
13,CC1CCC(C)CC1 (stereo not drawn),-36.9
14,O=[N+]([O-])c1ccc2ccc3cccc4ccc1c2c34,155
15,CC1(C)CC(=O)C(Cl)C(=O)C1,163
16,N#CCc1ccc(-c2ccccc2)cc1,95
17,FC(F)(Br)C(F)(F)C(F)(F)C(F)(F)C(F)(F)C(F)(F)C(F)(F)C(F)(F)Br,40
18,c1cc2c3c(cccc3c1)CNC2,99
19,CC(Oc1ccc2ccccc2c1)C(=O)Nc1ccccc1 (stereo not drawn),128
20,NNC(=O)c1csc(-c2cccc(Cl)c2Cl)n1,230 to 233
21,C1CC2CCCC(C1)C2,146
22,Oc1ccc(C(O)C2CCCCN2)cc1O (stereo not drawn),204
23,COC(=O)[C@@H]1[C@H](c2ccccc2)C(C#N)=C(C(SC)SC)[C@@]1(O)c1ccccc1,164 to 165
24,CC(=O)c1csc(-c2ccc(OC(F)(F)F)cc2)n1,45.5 to 48

row,Compound,melting point [°C]
1,O=C(CI)c1ccccc1,34.4
2,Oc1cc(O)ncn1,300
3,CC12CCC(=O)C=C1CCC1C2C(O)CC2(C)C1CCC2(O)C(=O)CO (stereo not drawn),223
4,ClC1=C(Cl)C(Cl)(Cl)C(Cl)=C1Cl,-9
5,CC12CCC(C(CCC3C(=O)C4(C)CCC3C4(C)C)C1=O)C2(C)C (stereo not drawn),210
6,O=C1OC2(c3ccccc31)c1ccc(O)c(Br)c1Oc1c2ccc(O)c1Br,285
7,Cn1c(/C(C#N)=C/c2cccc(O)c2)nc2ccccc21,240
8,N#CC(C#N)=Cc1sccc1C=O,126 to 130
9,CC(C)OC(=O)c1cc(-c2nn(C)c(C(F)(F)F)c2Br)c(F)cc1Cl,80
10,CNC(C)Cc1ccc(O)cc1 (stereo not drawn),161
11,CCCC(=O)C=Cc1ccc(O)c(O)c1,132
12,COc1cccc(OC)c1SC,79 to 80
13,O=C(CCCl)N1CCc2ccccc21,83 to 85
14,O=C(Cl)c1ccc(Oc2ccccc2)cc1,22 to 23
15,Cc1ccc(S(=O)(=O)N(Cl)Cl)cc1,83
16,Cc1ccc(S(=O)(=O)OC2CCC3C4CCC5CC(=O)CCC5(C)C4CCC23C)cc1 (stereo not drawn),179 to 180
17,Nc1cccc(CN2CCCCC2)c1,106 to 109
18,COc1ccc(NC(=O)C(C)=NNC(N)=S)cc1,234
19,CCOC(C)(C)C,-94
20,CC1=CC(=O)OC2(C1)CC1CCC2CN1C (stereo not drawn),54.5
21,c1cc2cc3ccc4c(c3nc2c2c1NCOC2)COCN4,235

# More lines, now with the values ahead:
row,melting point [°C],Compound
1,239,CC1=NNC(=O)C1=NNc1ccccc1C(=O)O
2,37 to 40,Clc1ccc2nonc2c1
3,220,CC(=O)Nc1ccc(S(N)(=O)=O)cc1
4,72 to 74,Brc1ccc2nonc2c1
5,54,Cc1nc(-c2ccccc2)cs1
6,101,O=C(O)Cc1cccc(Br)c1
7,92 to 93,Cc1ccc(C#N)c(N)c1
8,123 to 124,CCOC(=O)C(C#N)=Cc1ccc(-c2ccccc2Br)o1
9,124,CCCN(CCC)c1c([N+](=O)[O-])cc(C(F)(F)F)c(N)c1[N+](=O)[O-]
10,244 to 246,Cc1nc(N)nc(O)c1Br
11,42 to 44,Cc1cc(Br)cc(C)c1I
12,233,Cc1c(C)c(O)c(C)c(C)c1O
13,87 to 88,COc1ccc(Br)cc1[N+](=O)[O-]
14,< 20,Brc1ccc(Oc2ccccc2)cc1Br
15,98 to 100,COC(=O)c1cncc(Br)c1
16,315 to 318,O=C(O)c1cc(Br)c(C(=O)O)cc1Br
17,170 to 172,Cc1ccc(N)cc1NS(C)(=O)=O
18,156,COc1ccc(C=Cc2cc(OC)cc(=O)o2)cc1
19,105,Cc1ccc(NC(=O)CC(C)c2ccc(C)cc2)cc1 (stereo not drawn)
20,143,Cc1ccc(N2C(=O)C=CC2=O)cc1Cl

row,melting point [°C],Compound
1,30,O=S(=O)(Cl)c1ccc(F)cc1Cl
2,292,Nc1c(Cl)cc(C(=O)O)cc1Cl
3,32 to 38,Cc1ccc([N+](=O)[O-])c(C)n1
4,71,O=Cc1ccc(Br)c(Br)c1
5,171 to 175,Cc1cc(Br)c[nH]c1=O
6,150 to 153,COc1ccc2cc(C(=O)c3ccccc3)c(=O)oc2c1
7,44 to 49,Cc1cc(Br)cc(Br)c1N
8,66 to 68,Cc1cnc(Cl)c(Br)c1
9,64 to 65,Cc1nc(-c2ccc(C(F)(F)F)cc2)sc1CBr
10,37,CCOC(=O)C(O)c1ccccc1 (racemic)
11,153 to 154,CCOC(=O)c1cnn(-c2ccc(F)cc2)c1N
12,236,Cc1cc2c(cc1S(N)(=O)=O)S(=O)(=O)CCC2
13,118 to 119,Nc1cc(Cl)c(Cl)c(Cl)c1Cl
14,235,Cc1nc(O)ccc1[N+](=O)[O-]
15,-16,Cc1ccc(C)nc1
16,48,Fc1cc(Br)ccc1I
17,-59,CC(C)c1ccccc1Br
18,58,COc1ccc(Cl)cc1N=C=S
19,155 to 156,COc1c(C(=O)O)csc1Br
20,148,Cc1ccc(/C=C(\C(N)=O)c2nc3ccccc3s2)cc1
